Source: patent US12263180B2, “Method for treatment of COVID-19-associated conditions” (priority 2020, dated 2025)
≈ marks a conversion by molar mass, not a printed value. Where two headings read alike, the source gives them in different places.

Experiments:
COVID-19 [1] = settings: critically ill COVID-19 patients, compared to standard care; cited from earlier work
[2] = test system: SARS-CoV-2 as well as other human and bat coronaviruses; settings: mice; cited from earlier work
[3] = test system: SARS-CoV-2 as well as other human and bat coronaviruses; settings: human airway epithelial cells; cited from earlier work
LPS-induced ALI = settings: mice; cited from earlier work
[4] = water solubility in aqueous buffer under physiological conditions
MUC1 = settings: mouse model of ALI; cited from earlier work
physchem = settings: aqueous buffer
COVID-19 [5] = test: Phase 3 placebo-controlled study in hospitalized COVID-19 patients; format: in vivo
[6] = test system: chronic immune thrombocytopenia (ITP); settings: ITP patients, two randomized studies; cited from earlier work
[7] = human, in vivo; cited from earlier work
human neutrophils = settings: in vitro; cited from earlier work
[8] = in vivo
IL-6 = settings: RA patients, within the first week of treatment; cited from earlier work
human ACE2 = human ACE2 (Homo sapiens, UniProt Q9BYF1); settings: cited from earlier work
Sequence of human ACE2 (Q9BYF1 18-805): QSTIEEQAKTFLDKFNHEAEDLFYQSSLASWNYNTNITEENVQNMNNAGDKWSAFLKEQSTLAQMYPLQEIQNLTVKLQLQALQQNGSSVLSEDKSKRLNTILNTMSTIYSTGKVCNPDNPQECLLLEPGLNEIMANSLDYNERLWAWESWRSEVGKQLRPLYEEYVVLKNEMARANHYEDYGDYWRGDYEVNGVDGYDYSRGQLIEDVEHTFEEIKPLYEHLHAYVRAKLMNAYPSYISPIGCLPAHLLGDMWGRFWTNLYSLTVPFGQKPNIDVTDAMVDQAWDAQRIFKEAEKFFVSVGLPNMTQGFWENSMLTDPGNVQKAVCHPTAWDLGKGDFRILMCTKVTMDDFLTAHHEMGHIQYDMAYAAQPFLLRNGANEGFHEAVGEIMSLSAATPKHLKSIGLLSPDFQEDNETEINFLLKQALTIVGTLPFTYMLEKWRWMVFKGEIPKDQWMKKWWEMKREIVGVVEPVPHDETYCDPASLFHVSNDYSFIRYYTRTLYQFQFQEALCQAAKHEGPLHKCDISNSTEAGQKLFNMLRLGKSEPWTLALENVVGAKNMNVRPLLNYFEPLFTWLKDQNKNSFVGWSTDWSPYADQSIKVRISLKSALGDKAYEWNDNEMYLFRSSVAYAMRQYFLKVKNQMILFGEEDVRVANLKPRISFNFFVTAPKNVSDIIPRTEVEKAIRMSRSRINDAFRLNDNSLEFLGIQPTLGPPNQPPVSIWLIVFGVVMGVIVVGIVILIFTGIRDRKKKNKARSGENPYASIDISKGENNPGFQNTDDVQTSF

In the case of `C[C@]12CCC(=O)C=C1CC[C@@H]1[C@@H]2[C@@H](O)C[C@@]2(C)[C@H]1CC[C@]2(O)C(=O)CO` [hydrocortisone, Hydrocortisone], the mortality rate (COVID-19 [1]) is given as “effective in reducing mortality rate”.

In the case of `O=c1nc(NO)ccn1[C@@H]1O[C@H](CO)[C@@H](O)[C@H]1O` [N4-hydroxycytidine], the inhibition of coronaviruses [2] is listed as “inhibit SARS-CoV-2 as well as other human and bat coronaviruses” and the inhibition of coronaviruses [3] is listed as “inhibit SARS-CoV-2 as well as other human and bat coronaviruses”.

In the case of `COc1cc(Nc2ncc(F)c(Nc3ccc4c(n3)NC(=O)C(C)(C)O4)n2)cc(OC)c1OC` [Compound 1, N4-(2,2-Dimethyl-3-oxo-4H-5-pyrid[1,4]oxazin-6-yl)-5-fluoro-N2-(3,4,5-trimethoxyphenyl)-2,4-pyrimidinediamine], the “protection in LPS-induced ALI” value (LPS-induced ALI) is listed as “protective”, the solubility [4] is listed as 1 to 2 µg/mL (≈ 2.13 to 4.25 µM) and the MUC1 (MUC1) is listed as “reduced MUC1”.

In the case of `COc1cc(Nc2ncc(F)c(Nc3ccc4c(n3)N(COP(=O)(O)O)C(=O)C(C)(C)O4)n2)cc(OC)c1OC` [Compound 4], the solubility (physchem) is reported as greater than 5000 µg/mL, the “occurrence of several severe symptoms of COVID-19 (AKI, kidney malfunction, acute lung injury, thrombosis, coagulopathy)” value (COVID-19 [5]; vs placebo) is reported as “significantly reduced” and the “percentage of COVID-19 infected patients that develop severe disease that requires intensive care” value (COVID-19 [5]; vs placebo) is reported as “significantly reduce”. For the same compound, the “percentage of patients developing severe or critical disease” value (COVID-19 [5]; within 29 days of first dose, vs placebo) was “significantly smaller percentage”, the “percentage of patients that develop ARDS” value (COVID-19 [5]; within patients requiring intensive care) was “significantly reduce” and the “number of patients that die” value (COVID-19 [5]; within patients that develop ARDS) was “significantly reduce”. The bleeding episodes [6] was “decreased bleeding episodes”, the platelet counts [6] was “increased platelet counts” and the safety profile [7] was “manageable safety profile”. The NETosis (human neutrophils) was “block NETosis”, the “oral bioavailability when formulated with progroup -CH2-O-P(O)(OH)2” value [8] was “increased dramatically” and the “plasma levels of IL-6” value (IL-6) was “reduce plasma levels of IL-6”.

For `N[C@@H](CCN[C@@H](CCN1CC[C@H]1C(=O)O)C(=O)O)C(=O)O` [nicotianamine], the IC50 (human ACE2) is given as 84 nM.
